# Measured values taken from US11066445B2, “Immunomodulators acting as antagonists of PD-1” (Bristol-Myers Squibb Company, priority 2017, dated 2021).
# pIC50: −log10 of the molar value. Starred links: 1 amine or outer side, 2 acyl side, 3 side chain; linkers in the order of their positions; H or OH if unused. Positions of bridges follow the written chain, without caps; N, C: chain ends. Non-standard residues stand in square brackets, D forms with d. Residues, ends and D or L forms follow the SMILES beside them. *: point of attachment. X3 = O=C(O)CCCCCCCCCCCCCCCCC(=O)N[C@@H](CCC(=O)NCCCOCCOCCOCCCN*)C(=O)O; Trp(1-CH2CONHSO2Me) = CS(=O)(=O)NC(=O)Cn1cc(C[C@H](N)C(=O)O)c2ccccc21; X6 = COc1ccc2c(c1)c(C[C@H](N[*:1])C(=O)[*:2])cn2CC(=O)O; X4 = O=C(O)Cn1nc(C[C@H](N[*:1])C(=O)[*:2])c2ccccc21; Hyp = O=C(O)[C@@H]1C[C@@H](O)CN1; NMeNle = CCCC[C@H](NC)C(=O)O; NMeA = CN[C@@H](C)C(=O)O; Dab = NCC[C@H](N)C(=O)O; Dap = NC[C@H](N)C(=O)O; Sar = CNCC(=O)O
# Biological target: T1, PD-1-Ig binding to PD-L1-TVMV-His (PD-L1-His) (Homo sapiens, UniProt Q9NZQ7)
# T1 construct: hPDL1(19-239)-TVMV-His; TVMV protease cleavage site (C); made in house; host or cells: HEK293T cells
# Experiment: PD-1/PD-L1 Homogenous Time-Resolved Fluorescence (HTRF) binding assay
# Settings: PD-1-Ig (20 nM) / PD-L1-His (10 nM); numeric values; read-out: LE HTRF hPD1 hPDL1 IC50
# Excerpt: Methods for Testing the Ability of Macrocyclic Peptides to Compete for the Binding of Pd-1 to Pd-L1 Using Homogenous Time-Resolved Fluorescence (HTRF) Binding Assays
# The ability of the macrocyclic peptides of the present disclosure to bind to PD-L1 was investigated using a PD-1/PD-L1 Homogenous Time-Resolved Fluorescence (HTRF) binding assay.
# Homogenous Time-Resolved Fluorescence (HTRF) Assays of Binding of Soluble PD-1 to Soluble PD-L1. Soluble PD-1 and soluble PD-L1 refers to proteins with carboxyl-end truncations that remove the transmembrane-spanning regions and are fused to heterologous sequences, specifically the Fc portion of the human immunoglobuling G sequence (Ig) or the hexahistidine epitope tag (His). All binding studies were performed in an HTRF assay buffer consisting of dPBS supplemented with 0.1% (w/v) bovine serum albumin and 0.05% (v/v) Tween-20. For the PD-1-Ig/PD-L1-His binding assay, inhibitors were pre-incubated with PD-L1-His (10 nM final) for 15 m in 4 μl of assay buffer, followed by addition of PD-1-Ig (20 nM final) in 1 μl of assay buffer and further incubation for 15 m. PD-L1 fusion proteins from either human, cynomologous macaques, mouse, or other species were used. HTRF detection was achieved using europium crypate-labeled anti-Ig monoclonal antibody (1 nM final) and allophycocyanin (APC) labeled anti-His monoclonal antibody (20 nM final). Antibodies were diluted in HTRF detection buffer and 5 μl was dispensed on top of binding reaction. The reaction was allowed to equilibrate for 30 minutes and signal (665 nm/620 nm ratio) was obtained using an EnVision fluorometer. Additional binding assays were established between PD-1-Ig/PD-L2-His (20 and 5 nM, respectively), CD80-His/PD-L1-Ig (100 and 10 nM, respectively) and CD80-His/CTLA4-Ig (10 and 5 nM, respectively). Binding/competition studies between biotinylated Compound No. 71 and human PD-L1-His were performed as follows. Macrocyclic peptide inhibitors were pre-incubated with PD-L1-His (10 nM final) for 60 minutes in 4 μl of assay buffer followed by addition of biotinylated Compound No. 71 (0.5 nM final) in 1 μl of assay buffer. Binding was allowed to equilibrate for 30 minutes followed by addition of europium crypated labeled Streptavidin (2.5 pM final) and APC-labeled anti-His (20 nM final) in 5 μl of HTRF buffer. The reaction was allowed to equilibrate for 30 m and signal (665 nm/620 nm ratio) was obtained using an EnVision fluorometer.
# Recombinant Proteins. Carboxyl-truncated human PD-1 (amino acids 25-167) with a C-terminal human Ig epitope tag [hPD-1 (25-167)-3S-IG] and human PD-L1 (amino acids 18-239) with a C-terminal His epitope tag [hPD-L1(19-239)-tobacco vein mottling virus protease cleavage site (TVMV)-His] were expressed in HEK293T cells and purified sequentially by recombinant Protein A affinity chromatography and size exclusion chromatography. Human PD-L2-His (Sino Biologicals), CD80-His (Sino Biologicals), CTLA4-Ig (RnD Systems) were all obtained through commercial sources.
# Ranges are as follows: A=0.010-0.060 μM; B=0.0011-0.009 μM; C=0.0003-0.0010 μM.
# T1 sequence (Q9NZQ7 with tags, fused parts or gaps): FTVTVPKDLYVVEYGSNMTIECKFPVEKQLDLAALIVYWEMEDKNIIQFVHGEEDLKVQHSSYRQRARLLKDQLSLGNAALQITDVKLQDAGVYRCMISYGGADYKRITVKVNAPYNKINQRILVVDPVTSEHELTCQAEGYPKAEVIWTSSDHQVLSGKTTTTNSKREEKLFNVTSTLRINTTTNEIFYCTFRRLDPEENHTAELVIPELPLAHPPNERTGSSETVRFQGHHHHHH
row,pIC50,SMILES
1,8.92,CCCC[C@H]1C(=O)N(C)[C@@H](CCCC)C(=O)N[C@@H](CC(C)C)C(=O)N[C@H](C(=O)NCC(=O)N[C@@H](CC(=O)NCCCOCCOCCOCCCNC(=O)CC[C@H](NC(=O)CCCCCCCCCCCCCCCCC(=O)O)C(=O)O)C(=O)O)CSCC(=O)N[C@@H](Cc2ccc(O)cc2)C(=O)N(C)[C@@H](C)C(=O)N[C@@H](CC(N)=O)C(=O)N2CCC[C@H]2C(=O)N[C@@H](CN)C(=O)N[C@@H](CC(C)C)C(=O)N2C[C@H](O)C[C@H]2C(=O)N[C@@H](Cc2c[nH]c3ccccc23)C(=O)N[C@@H](CCN)C(=O)N[C@@H](Cc2cn(CC(=O)NS(C)(=O)=O)c3ccccc23)C(=O)N1C [Example 1] ({CH2CO}-Y[NMeA]NP[Dap]L[Hyp]W[Dab][Trp(1-CH2CONHSO2Me)][NMeNle][NMeNle]LCGD(X3)-OH; thioether N-14)

# Same assay, conditions: PD-1-Ig (20 nM) / PD-L1-His (10 nM); range classes; read-out: LE HTRF hPD1 hPDL1 IC50
row,pIC50,SMILES
1,8.05 to 8.96,CCCC[C@H]1C(=O)N(C)[C@@H](CCCC)C(=O)N[C@@H](CC(C)C)C(=O)N[C@H](C(=O)NCC(=O)N[C@@H](CC(=O)NCCCOCCOCCOCCCNC(=O)CC[C@H](NC(=O)CCCCCCCCCCCCCCCCC(=O)O)C(=O)O)C(=O)O)CSCC(=O)N[C@@H](Cc2ccc(O)cc2)C(=O)N(C)[C@@H](C)C(=O)N[C@@H](CC(N)=O)C(=O)N2CCC[C@H]2C(=O)N[C@@H](CN)C(=O)N[C@@H](CC(C)C)C(=O)N2C[C@H](O)C[C@H]2C(=O)N[C@@H](Cc2c[nH]c3ccccc23)C(=O)N[C@@H](CCN)C(=O)N[C@@H](Cc2nn(CC(=O)O)c3ccccc23)C(=O)N1C [Example 5] ({CH2CO}-Y[NMeA]NP[Dap]L[Hyp]W[Dab][X4][NMeNle][NMeNle]LCGD(X3)-OH; thioether N-14)
2,9.00 to 9.52,CCCC[C@H]1C(=O)N(C)[C@@H](CCCC)C(=O)N[C@@H](CC(C)C)C(=O)N[C@H](C(=O)NCC(=O)N[C@@H](Cc2cn(CCOCCOCCOCCOCCOCCOCCOCCOCCOCCOCCOCCNC(=O)CC[C@H](NC(=O)CCCCCCCCCCCCCCCCC(=O)O)C(=O)O)nn2)C(=O)O)CSCC(=O)N[C@@H](Cc2ccc(O)cc2)C(=O)N(C)[C@@H](C)C(=O)N[C@@H](CC(N)=O)C(=O)N2CCC[C@H]2C(=O)N[C@@H](CN)C(=O)N[C@@H](CC(C)C)C(=O)N2C[C@H](O)C[C@H]2C(=O)N[C@@H](Cc2c[nH]c3ccccc23)C(=O)N[C@@H](CCN)C(=O)N[C@@H](Cc2cn(CC(=O)O)c3ncccc23)C(=O)N1C [Example 31]
3,9.00 to 9.52,CCCC[C@H]1C(=O)N(C)[C@@H](CCCC)C(=O)N[C@@H](CC(C)C)C(=O)N[C@H](C(=O)NCC(=O)N[C@@H](CC(=O)NCCCOCCOCCOCCCNC(=O)CC[C@H](NC(=O)CCCCCCCCCCCCCCCCC(=O)O)C(=O)O)C(=O)O)CSCC(=O)N[C@@H](Cc2ccc(O)cc2)C(=O)N(C)[C@@H](C)C(=O)N[C@@H](CC(N)=O)C(=O)N2CCC[C@H]2C(=O)N[C@@H](CN)C(=O)N[C@@H](CC(C)C)C(=O)N2C[C@H](O)C[C@H]2C(=O)N[C@@H](Cc2c[nH]c3ccccc23)C(=O)N[C@@H](CCN)C(=O)N[C@@H](Cc2cn(CC(=O)O)c3ccc(OC)cc23)C(=O)N1C [Example 12] ({CH2CO}-Y[NMeA]NP[Dap]L[Hyp]W[Dab][X6][NMeNle][NMeNle]LCGD(X3)-OH; thioether N-14)
4,9.00 to 9.52,CCCC[C@H]1C(=O)N(C)[C@@H](CCCC)C(=O)N[C@@H](CC(C)C)C(=O)N[C@H](C(=O)NCC(=O)N[C@@H](Cc2cn(CCOCCOCCOCCOCCOCCOCCOCCOCCOCCOCCOCCNC(=O)CC[C@H](NC(=O)CCCCCCCCCCCCCCCCC(=O)O)C(=O)O)nn2)C(=O)O)CSCC(=O)N[C@@H](Cc2ccc(O)cc2)C(=O)N(C)[C@@H](C)C(=O)N[C@@H](CC(N)=O)C(=O)N2CCC[C@H]2C(=O)N[C@@H](CN)C(=O)N[C@@H](CC(C)C)C(=O)N2C[C@H](O)C[C@H]2C(=O)N[C@@H](Cc2c[nH]c3ccccc23)C(=O)N[C@@H](CCN)C(=O)N[C@@H](Cc2nn(CC(=O)O)c3ccccc23)C(=O)N1C [Example 29]
5,7.22 to 8.00,CCCC[C@H]1C(=O)N(C)[C@@H](CCCC)C(=O)N[C@@H](CC(C)C)C(=O)N[C@H](C(=O)NCC(=O)N[C@@H](Cc2cn(CCOCCOCCOCCOCCOCCOCCOCCOCCOCCOCCOCCNC(=O)CCC(NC(=O)CCCCCCCCCCCCCCCCC(=O)O)C(=O)O)nn2)C(=O)O)CSCC(=O)N[C@@H](Cc2ccc(O)cc2)C(=O)N(C)[C@@H](C)C(=O)N[C@@H](CC(N)=O)C(=O)N2CCC[C@H]2C(=O)N[C@@H](CN)C(=O)N[C@@H](CC(C)C)C(=O)N2C[C@H](O)C[C@H]2C(=O)N[C@@H](Cc2c[nH]c3ccccc23)C(=O)N[C@@H](CCN)C(=O)N[C@@H](Cc2cn(CC(=O)O)c3cccnc23)C(=O)N1C (stereo partly shown) [Example 28]
6,8.05 to 8.96,CCCC[C@H]1C(=O)N(C)[C@@H](CCCC)C(=O)N[C@@H](CC(C)C)C(=O)N[C@H](C(=O)NCC(=O)N[C@@H](CC(=O)NCCCOCCOCCOCCCNC(=O)CC[C@H](NC(=O)CCCCCCCCCCCCCCCCC(=O)O)C(=O)O)C(=O)O)CSCC(=O)N[C@@H](Cc2ccc(O)cc2)C(=O)N(C)[C@@H](C)C(=O)N[C@@H](CC(N)=O)C(=O)N(C)CC(=O)N[C@@H](CN)C(=O)N[C@@H](CC(C)C)C(=O)N2C[C@H](O)C[C@H]2C(=O)N[C@@H](Cc2c[nH]c3ccccc23)C(=O)N[C@@H](CCN)C(=O)N[C@@H](Cc2nn(CC(=O)O)c3ccccc23)C(=O)N1C [Example 6] ({CH2CO}-Y[NMeA]N[Sar][Dap]L[Hyp]W[Dab][X4][NMeNle][NMeNle]LCGD(X3)-OH; thioether N-14)
7,8.05 to 8.96,CCCC[C@H]1C(=O)N(C)[C@@H](CCCC)C(=O)N[C@@H](CC(C)C)C(=O)N[C@H](C(=O)N[C@@H](Cc2cn(CCOCCOCCOCCOCCOCCOCCOCCOCCOCCOCCOCCNC(=O)CC[C@H](NC(=O)CCCCCCCCCCCCCCCCC(=O)O)C(=O)O)nn2)C(=O)O)CSCC(=O)N[C@@H](Cc2ccc(O)cc2)C(=O)N(C)[C@@H](C)C(=O)N[C@@H](CC(N)=O)C(=O)N2CCC[C@H]2C(=O)N[C@@H](CN)C(=O)N[C@@H](CC(C)C)C(=O)N2C[C@H](O)C[C@H]2C(=O)N[C@@H](Cc2c[nH]c3ccccc23)C(=O)N[C@@H](CCN)C(=O)N[C@@H](Cc2cn(CC(=O)O)c3cccnc23)C(=O)N1C [Example 26]
8,9.00 to 9.52,CCCC[C@H]1C(=O)N(C)[C@@H](CCCC)C(=O)N[C@@H](CC(C)C)C(=O)N[C@H](C(=O)N[C@@H](Cc2cn(CCOCCOCCOCCOCCOCCOCCOCCOCCOCCOCCOCCNC(=O)CC[C@H](NC(=O)CCCCCCCCCCCCCCCCC(=O)O)C(=O)O)nn2)C(=O)O)CSCC(=O)N[C@@H](Cc2ccc(O)cc2)C(=O)N(C)[C@@H](C)C(=O)N[C@@H](CC(N)=O)C(=O)N2CCC[C@H]2C(=O)N[C@@H](CN)C(=O)N[C@@H](CC(C)C)C(=O)N2C[C@H](O)C[C@H]2C(=O)N[C@@H](Cc2c[nH]c3ccccc23)C(=O)N[C@@H](CCN)C(=O)N[C@@H](Cc2nn(CC(=O)O)c3ccc(OC)cc23)C(=O)N1C [Example 24]
9,8.05 to 8.96,CCCC[C@H]1C(=O)N(C)[C@@H](CCCC)C(=O)N[C@@H](CC(C)C)C(=O)N[C@H](C(=O)NCC(=O)NCCCOCCOCCOCCCNC(=O)CC[C@H](NC(=O)CCCCCCCCCCCCCCCCC(=O)O)C(=O)O)CSCC(=O)N[C@@H](Cc2ccc(O)cc2)C(=O)N(C)[C@@H](C)C(=O)N[C@@H](CC(N)=O)C(=O)N2CCC[C@H]2C(=O)N[C@@H](CN)C(=O)N[C@@H](CC(C)C)C(=O)N2C[C@H](O)C[C@H]2C(=O)N[C@@H](Cc2c[nH]c3ccccc23)C(=O)N[C@@H](CCN)C(=O)N[C@@H](Cc2cn(CC(=O)NS(C)(=O)=O)c3ccccc23)C(=O)N1C [Example 3] ({CH2CO}-Y[NMeA]NP[Dap]L[Hyp]W[Dab][Trp(1-CH2CONHSO2Me)][NMeNle][NMeNle]LCG-X3; thioether N-14)
